The supplement of paper PMC10307832

What was measured:
Assay in all cases: relative viability (nuclei count vs DMSO), 5 days (fraction); higher = more cells survive
CX-5461 + Linsitinib = compound: Cc1cnc(CNC(=O)c2c(=O)c3ccc(N4CCCN(C)CC4)nc3n3c2sc2ccccc23)cn1 [CX-5461] + C[C@]1(O)C[C@@H](c2nc(-c3ccc4ccc(-c5ccccc5)nc4c3)c3c(N)nccn32)C1 [Linsitinib] (partner 1 µM)
Method in brief: (§1)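 Cells from lung cancer lines were seeded into 1536-well plates and, one day later, dosed by pin tool. Treatments were either a single drug or a fixed dose of an anchor drug with five library-drug doses (not always all listed) in √10 steps. After 5 days, nuclei were stained in a one-step fixation (final 0.05% Triton X-100, 1% formaldehyde, 1 ug/ml Hoechst) and counted on 4× images, and relative viability is the treated-to-vehicle nuclei ratio, as the median of duplicate plates.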

IMD-0354 + Crizotinib = compound: O=C(Nc1cc(C(F)(F)F)cc(C(F)(F)F)c1)c1cc(Cl)ccc1O [IMD-0354] + C[C@@H](Oc1cc(-c2cnn(C3CCNCC3)c2)cnc1N)c1c(Cl)ccc(F)c1Cl [Crizotinib] (partner 1 µM)
Method in brief: as §1

IMD-0354 + Pemetrexed = compound: O=C(Nc1cc(C(F)(F)F)cc(C(F)(F)F)c1)c1cc(Cl)ccc1O [IMD-0354] + Nc1nc2[nH]cc(CCc3ccc(C(=O)N[C@@H](CCC(=O)O)C(=O)O)cc3)c2c(=O)[nH]1 [Pemetrexed] (partner 0.2 µM)
Method in brief: as §1

IMD-0354 + Olaparib = compound: O=C(Nc1cc(C(F)(F)F)cc(C(F)(F)F)c1)c1cc(Cl)ccc1O [IMD-0354] + O=C(c1cc(Cc2n[nH]c(=O)c3ccccc23)ccc1F)N1CCN(C(=O)C2CC2)CC1 [Olaparib] (partner 8 µM)
Method in brief: as §1

Cell Line | relative viability (CX-5461 + Linsitinib; first compound 0.01 µM) | relative viability (CX-5461 + Linsitinib; first compound 0.03162 µM) | relative viability (CX-5461 + Linsitinib; first compound 0.1 µM) | relative viability (CX-5461 + Linsitinib; first compound 1 µM) | relative viability (IMD-0354 + Crizotinib; first compound 0.04 µM) | relative viability (IMD-0354 + Crizotinib; first compound 0.1265 µM) | relative viability (IMD-0354 + Crizotinib; first compound 0.4 µM) | relative viability (IMD-0354 + Crizotinib; first compound 1.265 µM) | relative viability (IMD-0354 + Crizotinib; first compound 4 µM) | relative viability (IMD-0354 + Pemetrexed; first compound 0.04 µM) | relative viability (IMD-0354 + Pemetrexed; first compound 0.1265 µM) | relative viability (IMD-0354 + Pemetrexed; first compound 1.265 µM) | relative viability (IMD-0354 + Pemetrexed; first compound 4 µM) | relative viability (IMD-0354 + Olaparib; first compound 0.04 µM) | relative viability (IMD-0354 + Olaparib; first compound 0.1265 µM) | relative viability (IMD-0354 + Olaparib; first compound 1.265 µM) | relative viability (IMD-0354 + Olaparib; first compound 4 µM) | relative viability (CX-5461 + Linsitinib; first compound 0.3162 µM) | relative viability (IMD-0354 + Pemetrexed; first compound 0.4 µM) | relative viability (IMD-0354 + Olaparib; first compound 0.4 µM)
LK-2 | 0.363 | 0.715 | 0.598 | 0.515 | 0.22 | 0.201 | 0.28 | 0.29 | 0.244 | 0.284 | 0.31 | 0.172 | 0.111 | 0.695 | 1.02 | 0.526 | 0.172 |  |  | 
NCI-H1437 | 1.17 | 1.11 |  | 0.763 | 1.02 | 0.905 | 0.548 | 0.238 | 0.207 | 0.321 | 0.338 | 0.191 | 0.202 | 0.669 | 0.574 | 0.218 | 0.232 | 0.991 | 0.221 | 0.376
LU99A | 0.562 | 0.575 | 0.494 | 0.53 | 0.453 | 0.62 | 0.482 | 0.214 | 0.203 | 0.194 | 0.201 | 0.188 | 0.149 | 0.196 | 0.269 | 0.176 | 0.179 | 0.345 | 0.143 | 0.257
HCC-827 | 0.901 | 1.01 | 0.999 | 0.957 | 1 | 0.881 | 0.736 | 0.498 | 0.263 | 0.26 | 0.267 | 0.19 | 0.163 | 0.55 | 0.614 | 0.372 | 0.21 | 0.946 | 0.243 | 0.482
HCC-366 | 0.574 | 0.738 | 0.581 | 0.615 | 0.586 | 0.858 | 0.225 | 0.105 | 0.0509 | 0.18 | 0.181 | 0.0649 | 0.0246 | 0.363 | 0.371 | 0.053 | 0.0706 | 0.573 | 0.0918 | 0.231
BEN | 1.01 | 0.967 | 1.01 | 0.727 | 0.856 | 0.8 | 0.463 | 0.366 | 0.299 | 0.815 | 0.758 | 0.373 | 0.322 | 1.07 | 0.975 | 0.437 | 0.394 | 0.827 | 0.506 | 0.782
NCI-H23 | 0.612 | 0.554 | 0.709 | 0.451 | 0.719 | 0.522 | 0.376 | 0.378 | 0.264 | 0.78 | 0.693 | 0.18 | 0.235 | 0.277 | 0.35 | 0.132 | 0.197 | 0.529 | 0.324 | 0.24
201T | 1.05 | 0.995 | 1.03 | 0.993 | 1.09 | 1.02 | 0.815 | 1 | 0.389 | 0.271 | 0.343 | 0.319 | 0.234 | 0.872 | 0.833 | 0.849 | 0.291 | 1.02 | 0.368 | 0.532
NCI-H358 | 0.817 | 0.748 | 0.345 | 0.304 | 0.6 | 0.611 | 0.228 | 0.232 | 0.348 | 0.174 | 0.172 | 0.138 | 0.126 | 0.569 | 0.543 | 0.14 | 0.198 | 0.314 | 0.175 | 0.335
NCI-H460 | 1.02 | 0.713 | 0.133 | 0.0178 | 0.892 | 0.808 | 0.243 | 0.142 | 0.0357 | 0.0638 | 0.0692 | 0.0741 | 0.0289 | 0.395 | 0.322 | 0.0469 | 0.0473 | 0.537 | 0.0923 | 0.363
NCI-H661 | 0.593 | 0.721 | 0.87 | 0.433 | 1.07 | 1.2 | 0.869 | 0.524 | 0.317 | 0.955 | 0.921 | 0.331 | 0.207 | 0.752 | 0.774 | 0.256 | 0.261 |  | 0.484 | 0.356
HCC-15 | 0.906 | 0.904 | 0.933 | 0.834 | 0.872 | 0.83 | 0.486 | 0.274 | 0.119 | 0.211 | 0.215 | 0.175 | 0.172 | 0.576 | 0.69 | 0.317 | 0.157 | 0.909 | 0.198 | 0.474
LCLC-103H | 1.14 | 1.16 | 0.895 | 1.12 | 1.02 | 1.18 | 0.734 | 0.703 | 0.352 | 0.518 | 0.491 | 0.317 | 0.266 | 0.79 | 0.739 | 0.45 | 0.379 | 1.21 | 0.446 | 0.566
NCI-H441 | 0.567 | 0.651 | 0.487 | 0.629 | 0.573 | 0.713 | 0.514 | 0.363 | 0.202 | 0.255 | 0.251 | 0.177 | 0.147 | 0.537 | 0.541 | 0.186 | 0.194 | 0.288 | 0.289 | 0.604
EPLC-272H | 1.3 | 1.27 | 1.09 | 1.06 | 1.04 | 0.787 | 0.67 | 0.822 | 0.225 | 0.332 | 0.278 | 0.247 | 0.214 | 1.16 | 0.495 | 0.106 | 0.38 |  | 0.474 | 0.599
